Test results published in patent US11504349B2, “Composition for preventing or treating TNF-related diseases, containing novel derivative as active ingredient, and method for inhibiting TNF activity by using same” (ILAB, priority 2017, dated 2022).

Experiments:
TNF-overexpressing mice = assay: Therapeutic effect on rheumatoid arthritis, TNF-overexpressing mouse model; assay type: in vivo
Method: First, until the mean level of arthritis of TNF-overexpres sing mice reached 8, the mice were raised. As such, etanercept (4.5 mpk), adalimumab (1.2 mpk), the compound of Example 61 (25 mpk, 50 mpk, or 100 mpk) were orally administered to the mice with rheumatoid arthritis from Week 15 to Week 23, three times a week, and the pathology was measured and recorded from Week 7 to Week 23 (N=5 to 6/group, *P<0.01, **P<0.005, ***P<0.001).

biotinylated TNF = molecular target: T1, biotinylated TNF (Homo sapiens, UniProt P01375); assay: Flow cytometry: binding of biotinylated TNF to Raw 264.7 cells; assay type: cell-based, mouse; conditions: compound 800, 200, 5 μM, FACS, FIG. 3a
T1 construct: purchased R&D Systems NFTAO
Method: First, macrophage Raw 264.7 cells were prepared (4×10^6 cells/ml), and the biotinylated TNF alone or in combination with the 4-benzopyranone derivative compound (800, 200, 5 μM) was added to the cells and reacted (30 min, 4° C.). 10 μl of avidin-FITC reagent was then added and reacted in the dark (30 min, 4° C.). After washing with RDF1 buffer, FACS analysis was carried out (BD Canto). Human TNF-alpha Biotinylated Fluorokine Flow Cytometry Kit (Cat #: NFTAO) of R&D Systems was used in the experiment.

BALB/c mice = assay: In vivo TNF neutralization assay (TNF/D-galactosamine-induced lethality); design: species or system mouse; conditions: 3.3, 16.5 mpk PO 30 minutes before challenge; 24 hours; concentration-dependent
Method: Treatment with TNF and a sensitizer D-galactosamine in an in vivo mouse model leads to death from acute liver failure. Thus, the compound of Example 61 (3.3 mpk or 16.5 mpk) was orally administered to BALB/c mice, and after 30 minutes, the mice were IP treated with the mixture of D-galactosamine (21 mg/mouse) and TNF (0.3 μg/mouse). Survival rates were observed and recorded every 3 hours up to 24 hours, and statistically analyzed by log-rank (Mantel-Cox) test using Prism 6 (GraphPad) (N=13/group, **P<0.005, ***P<0.001). mpk, mg/kg). This confirmed that the in vivo neutralization activity of the compounds binding to TNF in a TNF-induced lethality model.

etanercept = etanercept (Homo sapiens, UniProt P20333); assay: SPR binding to etanercept; conditions: FIG. 2c
TNF = TNF (Homo sapiens, UniProt P01375); assay: SPR (Biacore T200) direct binding to immobilized TNF; conditions: TNF immobilized on CM5 chip, read-out: binding affinity (KD)
Method: The binding kinetics of TNF and 4-benzopyranone derivative compounds was measured by Surface Plasmon Resonance (SPR) method. First, based on the results of pH scouting (10 mM acetate buffer, pH 4.0, 4.5, 5.0, and 5.5), the appropriate buffer pH was determined, and then the recombinant TNF was immobilized on the CM5 chip (4000-5000 RU). In order to correct an effect of DMSO, a solvent correction standard was then prepared, and DMSO was added to the HBS-EP+ buffer (GE) in an amount of 5%. Then, the 4-benzopyranone derivative compounds were prepared depending on concentration, flowed into the chip (20 μl/min, 500 s), and dissolved (500 s), and the results of sensorgram were analyzed by a dedicated program to determine the affinity value (KD). At this time, the running buffer was HBS-EP+ buffer (GE), the regeneration buffer was 10 mM glycine (pH 2.5), and Biacore T200 (GE) was used as an analyzer.

TNF, sequence (P01375 77-233 limits assumed): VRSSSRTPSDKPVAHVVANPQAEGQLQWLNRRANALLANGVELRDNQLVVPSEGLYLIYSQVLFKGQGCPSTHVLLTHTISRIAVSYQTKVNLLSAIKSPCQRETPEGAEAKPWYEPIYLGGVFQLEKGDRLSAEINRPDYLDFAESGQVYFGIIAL
T1 sequence (P01375 77-233 limits assumed): as above
etanercept, sequence (P20333 with tags, fused parts or gaps limits assumed): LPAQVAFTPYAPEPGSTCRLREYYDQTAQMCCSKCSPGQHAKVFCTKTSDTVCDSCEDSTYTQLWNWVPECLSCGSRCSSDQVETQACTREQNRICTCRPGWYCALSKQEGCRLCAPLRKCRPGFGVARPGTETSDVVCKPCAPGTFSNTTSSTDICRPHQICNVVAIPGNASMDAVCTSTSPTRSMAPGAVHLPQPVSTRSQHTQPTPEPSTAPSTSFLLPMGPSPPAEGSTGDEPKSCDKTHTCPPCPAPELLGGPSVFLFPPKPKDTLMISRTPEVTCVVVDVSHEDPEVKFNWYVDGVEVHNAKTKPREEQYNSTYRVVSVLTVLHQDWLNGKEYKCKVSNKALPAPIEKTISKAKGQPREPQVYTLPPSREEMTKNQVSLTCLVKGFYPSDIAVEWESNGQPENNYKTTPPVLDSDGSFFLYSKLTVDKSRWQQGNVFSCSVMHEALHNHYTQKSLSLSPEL

O=C(O)c1c(-c2cc(F)ccc2F)oc2cc(Cl)ccc2c1=O [Example 61, 2-(2,5-difluorophenyl)-3-carboxy-7-chloro-(4H)-4-benzopyranone]
therapeutic effect on rheumatoid arthritis (pathology score) (TNF-overexpressing mice; 25, 50 and 100 mpk PO, three times a week, Week 15 to 23, vs negative control): remarkable therapeutic effect | effect in comparison with adalimumab and etanercept (TNF-overexpressing mice; 50 and 100 mpk PO, adalimumab 1.2 mpk, etanercept 4.5 mpk): non-inferior effect | inhibitory activity against TNF-cell binding (biotinylated TNF): decreased the target cell binding of TNF to the basal level in a concentration-dependent manner | death of mice due to acute hepatotoxicity induced by D-galactosamine and TNF (BALB/c mice): inhibited | binding to etanercept (etanercept): did not bind to etanercept | Kd (TNF): 1440 nM
